Non-standard residues stand in square brackets, D forms with d. Residues, ends and D or L forms follow the SMILES beside them. *: point of attachment. 1Nal = N[C@@H](Cc1cccc2ccccc12)C(=O)O; Sta = CC(C)C[C@H](N)[C@@H](O)CC(=O)O; Cbz = O=C(OCc1ccccc1)*; NHNH2 = NN* Bounds are passed on as bounds.

What is called melting point is the temperature, or range, at which the solid turns liquid.

Take `CCOC(=O)CNc1ncccc1NC(=O)c1ccc(OC)cc1`: the melting point is 130 to 131 °C.

`O=C1c2c(-c3ccc(Cl)cc3)noc2CCC1CCCN1CCN(C(c2ccc(F)cc2)c2ccc(F)cc2)CC1` (configuration not stated): the melting point was in the range of 150 to 152 °C.

`O=C1c2ccccc2C(=O)c2c1nc1c(Cl)cccn21` had a melting point of more than 300 °C.

Consider `OCCN1CCN(c2ccccn2)CC1`, for which the melting point lay within 82.5 to 84 °C.

With `N#Cc1ccc(OCc2ccsc2)cc1OC(C(=O)O)c1ccccc1Cl` (racemic), the melting point is 68 to 70 °C.

The compound `COc1cc2cc(c1Cl)N(C)C(=O)CC(O)C1(C)OC1C(C)C1CC(O)(NC(=O)O1)C(OC)C=CC=C(C)C2` (configuration not stated) had a melting point of 174 °C.

For the compound `O=c1c(CCO)c(O)c2cccnc2n1-c1ccccc1`, the melting point lay in the range of 235 to 236 °C.

As to `CCOC(=O)c1cc(NC(=O)C(CSC(C)=O)Cc2ccc(Cl)cc2)c[nH]1` (configuration not stated), the melting point lay in the range of 141 to 144 °C.

For the compound `O=C1c2ccccc2C(=O)c2sc(-c3cccc(F)c3)nc21`, the melting point is more than 260 °C.

In the case of `C#CCNc1cc(C(=O)O)cc(S(N)(=O)=O)c1Oc1ccccc1`, the melting point lay in the range of 222 to 223 °C.

The compound `N#Cc1ccc2c(c1)S(=O)(=O)N=CN2C1CC1` registered a melting point of 268 to 270 °C.

In turn, `O=C(O)N1CCN2c3sc4c(c3CN(c3ccccc3Cl)CC12)CC=C4` (configuration not stated) came in with a melting point of 315 °C.

`N#Cc1cc([N+](=O)[O-])ccc1Oc1ccc(Oc2ccccc2)cc1`: the melting point lay within 150 to 152 °C.

`CC(=O)N1Cc2cccn2N(C)c2ccncc21` had a melting point of 125 to 130 °C.

In turn, `CCOC(=O)CNC(=O)c1csc(NC(=N)N)n1` showed a melting point of 190 °C.

With `CCC(CC)c1nnc(NC)n(N)c1=O`, the melting point lay in the range of 119 to 120 °C.

For the compound `COCc1nc2c(N)nc3cc(CCC(=O)N4CCS(=O)(=O)CC4)ccc3c2n1CC(C)(C)O`, the melting point was in the range of 190 to 192 °C.

Turning to `NCCCCc1cccc(C2=NNC(=O)CC2)c1`, the melting point was in the range of 128 to 130 °C.

`Cc1ccc(-c2cc3onc(-c4ccccc4)c3c(=O)n2C)cc1` yielded a melting point of 155 to 156 °C.

Consider `N#CCc1ccc(C(=O)c2ccc(Cl)cc2)[nH]1`, for which the melting point lay within 203 to 205 °C.

Compound `COC(=O)c1cc(Br)c(Br)o1` came in with a melting point of 56 to 57 °C.

`CN(C)C1(c2ccccc2)CCC2(OCCc3c2[nH]c2ccccc32)C(CCO)C1` (configuration not stated) returned a melting point of 311 to 314 °C.

`COc1ccc([N+](=O)[O-])cc1CN1CCNCCNCCNCC1` returned a melting point of 154 to 156 °C.

The compound `O=C1c2ccc(OCCn3ccnc3)cc2CCC1Cc1ccc(Br)cc1` (configuration not stated) had a melting point of 129 to 130 °C.

Turning to `Cc1ccc(-c2ccc3c(c2)C=C(C(=O)Nc2ccc(CP4(=O)OCCCO4)cc2)CCO3)cc1`, the melting point lay within 268 to 269 °C.

Regarding `Cc1ccc(-n2c(-c3ccc(-c4ccc(-c5nc6c7ccccc7c7ccccc7c6n5-c5ccc(C)cc5)cc4)cc3)nc3c4ccccc4c4ccccc4c32)cc1`, the melting point turned out to be 405 °C.

Regarding `CCc1cccnc1NC(=O)OC(C)(C)C`, the melting point was in the range of 101 to 102 °C.

As to `CCOCCn1c(SC2CCN(C(=O)c3cc(C)cc(C)c3)C(Cc3ccccc3)C2)nc2ccccc21` (configuration not stated), the melting point is 147 °C.

As to `CC(C)(C#N)c1ccc2nc(O)nnc2c1`, the melting point fell in the range of 183 to 185 °C.

Consider `CC(Cc1sc2ccc(Cl)cc2c1Cl)=NO`, for which the melting point is 133 to 138 °C.

As to `Cc1c(-c2ccccc2)oc(C(=O)O)cc1=O`, the melting point is 218 °C.

With `Cc1ccc(C(=O)Oc2cc(O)ccn2)cc1`, the melting point was in the range of 120 to 127 °C.

`CC(=O)S[C@@H]1CCO[C@@H](c2ccccc2)O1` (relative stereo) had a melting point of 95 to 96 °C.

`O=C(c1cc2ccccc2[nH]1)C1CSC(c2cccnc2)N1` (configuration not stated) came in with a melting point of 142 to 144 °C.

In the case of `COc1cccc(SCCC(=O)O)c1F`, the melting point is 72 to 74 °C.

The compound `Cc1ccc(CSc2nc(N)nc3nc[nH]c23)cc1` yielded a melting point of 240 to 242 °C.

Compound `Fc1cc(Cl)cc(Cn2cccc2)c1` displayed a melting point of 48 to 50 °C.

`Cc1cc(-n2c(C)nc3ccccc32)cc2ccc(=O)[nH]c12`: the melting point fell in the range of 307 to 313 °C.

In turn, `O=C(COCc1ccc(Cl)cc1Cl)c1ccccc1` returned a melting point of 83 to 85 °C.

For `C=CCOc1ccc(C=CC(=O)c2c(O)cc(OC)cc2OC)cc1`, the melting point is 112 °C.

`CCCCCCCCCCOc1ccccc1C(=N)OCC` had a melting point of 93 to 96 °C.

Take `CN1CCN(c2cc3nc(C(C)(C)C)sc3cc2[N+](=O)[O-])CC1`: the melting point was in the range of 132 to 135 °C.

Take `CN(C)C=CC(=O)c1cccnn1`: the melting point lay within 102 to 105 °C.

Compound `CC(C)Oc1c(C(N)=O)n(C)c2ccc(OCc3ccccc3)cc12` returned a melting point of 164 to 166 °C.

In turn, `CCCCCC(CC(=O)Nc1cc(C(N)=O)ccc1C(C)(C)C)c1ccc(OCCCOCC)cc1OC` (configuration not stated) had a melting point of 135 to 136 °C.

The compound `Cc1ccc(C(=O)NC(NC(=NC#N)Nc2ccccc2F)C(Cl)(Cl)Cl)cc1` (configuration not stated) had a melting point of 220 to 222 °C.

Compound `C#CCNC(=O)c1cccc(F)c1Nc1nc(Nc2ccc3c(c2)N(C(C)=O)CCCC3)ncc1Cl` came in with a melting point of 210 to 214 °C.

Compound `Cn1cc(-c2cccc([N+](=O)[O-])c2)c(=O)c(-c2cccc(C(F)(F)F)c2)c1` showed a melting point of 209 to 211 °C.

In turn, `CCCCOC(=O)N(C)S(=O)(=O)c1cc([N+](=O)[O-])c(N(CCC)CCC)c([N+](=O)[O-])c1` showed a melting point of 99 to 101 °C.

Take `CC(C)C[C@H](NC(=O)[C@H](Cc1c[nH]cn1)NC(=O)[C@H](Cc1cccc2ccccc12)NC(=O)OCc1ccccc1)[C@@H](O)CC(=O)NN` (Cbz-[1Nal]-His-[Sta]-NHNH2): the melting point is 120 to 127 °C.

As for `CCCCNc1ccc(-c2c(N)nc(N)nc2CC)cc1[N+](=O)[O-]`, the melting point lay in the range of 252 to 254 °C.

In turn, `N#CC(CCN1CCC(C(=O)ON2C(=O)CCC2=O)(c2ccccc2)CC1)(c1ccccc1)c1ccccc1` registered a melting point of 156 to 158 °C.

The compound `NS(=O)(=O)c1ccsc1CO` yielded a melting point of 85 to 89 °C.

As for `Cc1ccc(CCC(=O)c2c(O)c3cccnc3n(-c3ccccc3)c2=O)cc1`, the melting point was in the range of 232 to 234 °C.

On to `C=CC(c1ccc(F)cc1)c1c(C)c(NC=O)c(C)c(C)c1O` (configuration not stated), for which the melting point fell in the range of 168 to 170 °C.

Consider `CNc1cc2c(Nc3ccc(Sc4nccn4C)c(Cl)c3)c(C#N)cnc2cc1N1CCC(N2CCCC2)CC1`, for which the melting point fell in the range of 242 to 250 °C.

For the compound `Cc1cccc(-c2ncc(N)c(=O)n2CC(=O)NC(Cc2ccccc2)C(=O)C(F)(F)C(=O)NCC(=O)O)c1` (configuration not stated), the melting point is 128 to 132 °C.

In turn, `CC(=O)c1cc2c(cc1C)C(C)(C)CCC2(C)C` yielded a melting point of 54 to 57 °C.

Regarding `Oc1ccc(-c2nc3ccc(O)cc3s2)cc1`, the melting point was in the range of 284 to 286 °C.

On to `Cc1ccc(-c2nc(-c3ccc(O)cc3O)nc(-c3ccc(O)cc3O)n2)c(C)c1`, for which the melting point is 204 to 207 °C.

Turning to `O=C(Cc1cccnc1)c1ccc(Oc2ccccc2)cc1`, the melting point lay within 81 to 83 °C.

`Cc1ccc(Cn2nc(CNC(=O)NC(C)(C)C)cc2-c2ccc(Cl)c(Cl)c2)cc1Cl` registered a melting point of 181 °C.
